Each block holds one compound with its values, some of them ahead of it.
How the values were obtained:
N548 mutant cells = assay: cells; settings: for Activity: scale not defined; for maximal fold induction: read-out: N548 Mut: Max, maximum rescue expressed as fold over DMSO treated N548 mutant cells
Procedure: Embryonic rat striatal neurons were conditionally immortalized by stably transfecting a temperature-sensitive SV40 large T-antigen (T-ag) to generate the ST14A cell line. ST14A cells proliferate at the permissive temperature (33° C.), but stop dividing at 39° C., as a result of T-ag degradation. […] As htt protein context modulates polyQ toxicity, testing these different length htt proteins could provide insight into the basis for context dependence.
ST14A Assay System: Calcein acetoxylmethyl ester (AM) (Molecular Probes, Eugene, Oreg.) is a non-fluorescent, membrane-permeable compound that is cleaved by intracellular esterases, which subsequently forms the anionic, fluorescent compound, calcein, that cannot permeate the cell membrane. […] A fluorescence viability assay, that is based on conversion of a non-fluorescent substrate (calcein AM) to a fluorescent product by nonspecific esterases in live cells, was employed to monitor cell death in wild type (wt) ST14A-Htt and mut ST14A-Htt cell lines. Cell death is indicated by a decrease in fluorescence. […] 3 μl of each compound was transferred from daughter plates to triplicate assay plates for a final assay concentration of 4 μg/ml in 0.1% DMSO (10 μM for NINDS compounds). Cells were incubated at 33° C. for 3 h to enhance attachment and then shifted to 39° C. (with 5% CO2). After 3 days (d), cells were washed 10 times with phosphate buffered saline (PBS) leaving 20 μl residual PBS per well, and 20 μl of 2 μg/ml calcein AM (Molecular probes) in PBS was added per well. […] The fluorescence intensity in each well was normalized to the median of each plate. The median normalized fluorescence of each triplicate assay wells was determined. A well with more than 50% increase in intensity above the median signal intensity was considered a “hit.”
Assay Development: An assay was developed for detecting mutant htt-induced cell death in ST14A cells in a 384-well plate format. A calcein AM-based method was used to detect cell viability, and optimized the cell number and time course for this method. […] A cell number titration was performed to determine the cell density at which calcein fluorescence was not saturated and the coefficient of variation (CV) was low (FIG. 14A-B). A low CV is critical for a high-throughput assay as it decreases noise and enhances sensitivity. […] Next, the kinetics of the fluorescence signal were determined.
Next, the serum concentrations that induce cell death in these cells were determined. Cells were seeded in decreasing serum (IFS) concentrations (5 to 0%), and cell viability was assayed after 3 d using the calcein AM assay (FIG. 14E).
A Z′ value of greater than 0 is required for a usable assay, with a maximum value of 1.0 for an ideal assay. For the assay, calcein fluorescence was used on the day of seeding to represent 100% rescue. The difference in calcein fluorescence signal on the day of seeding and after different number of days under serum deprivation was determined and used to calculate the Z′ factor. […] About 47,000 compounds were assayed in a 384-well plate format in triplicate to enhance the reliability of the primary screen.

[1] = Rescue and toxicity of Compound 164 and analogs (Table 4); settings: for TC50: Table 4, toxicity
[2] = nonselective hits (rescue also parental ST14A), 0.5% IFS, 39° C., 3 d
[3] = Rattus norvegicus, read-out: EC50 based on activity in N548 mutant cells

EC50 (N548 mutant cells; Rattus norvegicus, ST14A, 72 h): 500 nM
Compound: CCCC1O[C@@H]2C[C@H]3[C@@H]4CCC5=CC(=O)C=C[C@]5(C)[C@H]4[C@@H](O)C[C@]3(C)[C@]2(C(=O)CO)O1 (stereo partly drawn) [Budesonide, reference compound]
Activity (N548 mutant cells; nonselective hits): 2

EC50 (N548 mutant cells; Rattus norvegicus, ST14A, 72 h): 1000 nM
Compound: CCOC(=O)C(C)(C)Oc1ccc(Cl)cc1 [Clofibrate, reference compound]
Activity (N548 mutant cells; nonselective hits): 2

Compound: O=C(O)c1cc([N+](=O)[O-])ccc1NCCCc1ccccc1 [Compound 2-NPPB, reference compound]
EC50 (N548 mutant cells; [2]): 10000 nM
Activity (N548 mutant cells; nonselective hits): 1.5
CC50 (N548 mutant cells; read-out: TC50, nonselective hits, maximum concentration tested 80 μM): 40000 nM

Compound: CC[C@@]1(C)CC(CCN(Cc2ccco2)C(C)=O)(c2ccccc2)CCO1 (stereo partly drawn) [Compound 164-1]
EC50 [1]: 2000 nM
TC50 [1]: 8000 nM

Compound: Cc1ccc(C2(CCNC(=O)c3ccc(Br)o3)CCOC(C(C)C)C2)cc1 (stereo not drawn) [Compound 164-2]
EC50 [1]: 440 nM
Max % Toxicity ([1]; Table 4, cell model not stated): 53.69%

Compound: CCC(=O)N(CCC(Cc1ccccc1)C1CCOC(C)(C)C1)Cc1ccco1 (stereo not drawn) [Compound 164-3]
EC50 [1]: 200 nM
TC50 [1]: 8000 nM
Max % Toxicity ([1]; Table 4, cell model not stated): 56.80%

Compound: CC(c1ccccc1)N(CCC(Cc1ccccc1)C1COCC(C)(C)C1)C(=O)c1ccco1 (stereo not drawn) [Compound 164-4]
TC50 [1]: 400 nM
Max % Toxicity ([1]; Table 4, cell model not stated): 64.22%

Compound: COc1ccc(CN(CCC(c2ccccc2)C2CCOC(C)(C)C2)C(=O)c2ccco2)cc1OC (stereo not drawn) [Compound 164-5, N-(3,4-dimethoxybenzyl)-N-[3-(2,2-dimethyltetrahydro-2H-pyran-4-yl)-3-phenylpropyl]-2-furamide]
EC50 [1]: 200 nM
TC50 [1]: 6000 nM
Max % Toxicity ([1]; Table 4, cell model not stated): 18.43%

Compound: COc1ccc(CN(CCC2(c3ccc(C)cc3)CCOC(C)(C)C2)C(=O)c2ccco2)cc1 (stereo not drawn) [Compound 164-6]
EC50 [1]: 100 nM
TC50 [1]: 3000 nM
Max % Toxicity ([1]; Table 4, cell model not stated): 60.14%

Compound: COc1ccc(CN(CCC(c2ccc(OC(C)C)cc2)C(C)C)C(=O)c2ccco2)cc1 (stereo not drawn) [Compound 164-7]
EC50 [1]: 100 nM
TC50 [1]: 400 nM
Max % Toxicity ([1]; Table 4, cell model not stated): 63.90%

Compound: COc1ccc(CN(CCC2(c3ccccc3)CCOC(C)(C)C2)C(C)=O)cc1OC (stereo not drawn) [Compound 164-9]
Max % Rescue ([1]; Table 4, cell model not stated): 28.56%
Max % Toxicity ([1]; Table 4, cell model not stated): 19.60%

Compound: COc1cc([C@@H]2c3cc4c(cc3[C@H](O)[C@H]3COC(=O)[C@H]23)OCO4)cc(OC)c1OC [Podophyllotoxin, reference compound]
maximal fold induction (N548 mutant cells; Rattus norvegicus, 72 h): 2.5
EC50 (N548 mutant cells; [3]): 25 nM

Compound: CCCCC[C@H](O)/C=C/[C@H]1[C@H](O)CC(=O)[C@@H]1C/C=C\CCCC(=O)O [Prostaglandin E2, reference compound]
EC50 (N548 mutant cells; [2]): 100 nM
Activity (N548 mutant cells; nonselective hits): 2

EC50 (N548 mutant cells; Rattus norvegicus, ST14A, 72 h): 500 nM
Compound: C[C@H](O)[C@H](O)[C@H]1CNc2nc(N)[nH]c(=O)c2N1 [Tetrahydrobiopterin, reference compound]
Activity (N548 mutant cells; nonselective hits): 2.5

EC50 (N548 mutant cells; Rattus norvegicus, ST14A, 72 h): 600 nM
Compound: CC1=C(/C=C/C(C)=C/C=C/C(C)=C/C(=O)O)C(C)(C)CCC1 [Tretinoin, reference compound]
Activity (N548 mutant cells; nonselective hits): 2.5

Compound: CC1OC(=O)C(C(C)C)NC(=O)C(C(C)C)OC(=O)C(C(C)C)NC(=O)C(C)OC(=O)C(C(C)C)NC(=O)C(C(C)C)OC(=O)C(C(C)C)NC(=O)C(C)OC(O)C(C(C)C)NC(=O)C(C(C)C)OC(=O)C(C(C)C)NC1=O (stereo not drawn) [Valinomycin A, reference compound]
maximal fold induction (N548 mutant cells; Rattus norvegicus, 72 h): 2.5
EC50 (N548 mutant cells; [3]): 150 nM

Compound: CC[C@]1(O)C[C@H]2CN(CCc3c([nH]c4ccccc34)[C@@](C(=O)OC)(c3cc4c(cc3OC)N(C=O)[C@H]3[C@@](O)(C(=O)OC)[C@H](OC(C)=O)[C@]5(CC)C=CCN6CC[C@]43[C@@H]65)C2)C1 [Vincristine, reference compound]
N548 Mut: Max, maximum rescue expressed as fold over DMSO treated N548 mutant cells (N548 mutant cells; 0.5% IFS, 39° C., 3 d): 2.5 fold
EC50 (N548 mutant cells; read-out: EC50 based on activity in N548 mutant cells): 40 nM

EC50 (N548 mutant cells; Rattus norvegicus, ST14A, 72 h): 5000 nM
Compound: CCCOc1ccccc1-c1nc2nn[nH]c2c(=O)[nH]1 [Zaprinast, reference compound]
Activity (N548 mutant cells; nonselective hits): 1.5

EC50 (N548 mutant cells; [3]): 4 µg/mL
Compound: CCCc1cc(OC(=O)C(CC)c2ccccc2)n(-c2cccc(F)c2)n1 (stereo not drawn) [revertin-1b]
selectivity profile of cell death rescue in panel of htt expressing cell lines (N548 mutant cells; N63, N548, FL htt cell lines, in words): selectively rescued cell death in all mutant htt-expressing cell lines
maximal fold induction (N548 mutant cells; Rattus norvegicus, 72 h): 25

EC50 (N548 mutant cells; [3]): 2 µg/mL
Compound: COc1ccccc1C(CCN(C(C)=O)C(C)c1ccccc1)C1CCC(C)(C)OC1 (stereo not drawn) [revertin-3]
maximal fold induction (N548 mutant cells; Rattus norvegicus, 72 h): 4

EC50 (N548 mutant cells; [3]): 4 µg/mL
Compound: COc1cc(CC(=O)NC(C)C2C(=O)CC3C2C3(C)C)cc(OC)c1OC (stereo not drawn) [revertin-4]
maximal fold induction (N548 mutant cells; Rattus norvegicus, 72 h): 1.5
